One may read the Kd as the constant that tells how readily two partners part at equilibrium. Read a high Kd as weaker binding. By IC50 is commonly meant the midpoint of a concentration-inhibition curve.

We go through eleven compounds from patent publication EP4603105A1, “PHARMACEUTICAL COMPOSITION CONTAINING CYCLIC COMPOUND HAVING SELECTIVE KRAS INHIBITORY EFFECT AGAINST HRAS AND NRAS” (CHUGAI SEIYAKU KABUSHIKI KAISHA, priority 2022, dated 2024).

Assay [1] deals with GDP-bound KRAS wild-type protein (Homo sapiens, UniProt P01116). Put plainly: Binding to KRAS by surface plasmon resonance (SPR), dissociation constant KD. The procedure, abridged:
(§1)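 Each cycle, GDP-bound biotin-Avi RAS was captured (~100–300 RU), compound concentrations were injected low to high for 75 s each at 100 µL/min, then the chip was regenerated. Buffer: HBS pH 7.4, 10 mM MgCl2, 10 µM GDP, 1 mM DTT, 4% DMSO; 30°C. KD from a 1:1 binding model.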
(SPR reads the build-up and loss of mass on a sensor chip optically.)

Assay [2] concerns the target GDP-bound NRAS wild-type protein (Homo sapiens, UniProt P01111). In words: Binding to NRAS by surface plasmon resonance (SPR), KD and KD ratio to KRAS. The settings on record: ratio of KD for GDP-bound NRAS wild-type protein to KD for KRAS. The procedure, abridged: as §1
For a further assay, the target named is HRAS wild-type protein (Homo sapiens, UniProt P01112). Put plainly: Binding to HRAS by surface plasmon resonance (SPR), KD and KD ratio to KRAS. The settings on record: ratio of KD for HRAS wild-type protein to KD for KRAS. The procedure, abridged:
as §1

For assay [3], the system named is human lung cancer strain NCI-H441. In words: NCI-H441 cell proliferation inhibitory activity (CellTiter-Glo, 4 days). The assay is classed as cell-based. The settings on record: NCI-H441 cells, 4 days, read-out: NCl-H441 IC50. The gist of the method:
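Signal came from […] measured per well once the reagent was added. Beforehand, cells were cultured at 37°C and 5% carbon dioxide on a compound series serially diluted in dimethyl sulfoxide.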
Background: In ATP-based viability assays light output follows the ATP content of the culture.

Sequence of GDP-bound NRAS wild-type protein (P01111 whole entry): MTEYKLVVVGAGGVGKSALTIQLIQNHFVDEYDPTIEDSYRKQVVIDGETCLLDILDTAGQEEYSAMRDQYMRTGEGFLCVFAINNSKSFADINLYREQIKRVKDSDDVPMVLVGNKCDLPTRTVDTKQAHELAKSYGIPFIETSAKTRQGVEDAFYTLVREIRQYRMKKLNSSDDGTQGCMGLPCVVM
Sequence of HRAS wild-type protein (P01112 whole entry): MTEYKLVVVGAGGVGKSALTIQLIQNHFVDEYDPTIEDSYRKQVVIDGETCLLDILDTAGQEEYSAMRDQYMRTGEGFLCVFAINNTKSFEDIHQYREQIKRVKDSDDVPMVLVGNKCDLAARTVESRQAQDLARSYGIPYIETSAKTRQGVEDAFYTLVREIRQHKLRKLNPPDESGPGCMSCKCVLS
Sequence of GDP-bound KRAS wild-type protein (P01116 1-188 isoform P01116-2): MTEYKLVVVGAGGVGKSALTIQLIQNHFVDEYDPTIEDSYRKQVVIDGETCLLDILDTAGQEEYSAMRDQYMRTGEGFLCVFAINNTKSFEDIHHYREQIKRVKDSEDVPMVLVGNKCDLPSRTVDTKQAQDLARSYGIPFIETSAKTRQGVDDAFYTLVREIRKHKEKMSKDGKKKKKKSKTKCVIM

Turning to `CCC[C@H]1C(=O)N[C@@H]([C@@H](C)CC)C(=O)N(C2CC2)CC(=O)N(C)[C@H]2C/C=C\CCN(C2=O)[C@@H](CC2CCCCC2)C(=O)N(C)CC(=O)N[C@@H](CCc2ccc(C(F)(F)F)c(OC)c2)C(=O)N2C[C@@H](C)C[C@H]2C(=O)N(C)C2(CCC2)C(=O)N(C)[C@@H](C2CCCC2)C(=O)N(C)[C@H](C(=O)N(C)C)CC(=O)N1C` [PP2372], in assay [1] (1:1 binding model), binding was characterised by a dissociation constant (Kd) of 0.79 nM. Further, the “NRAS /KRAS” value in assay [2] was “A (a compound having 10 or more and less than 20 is denoted as A)”. For the same compound, the “HRAS /KRAS” value on HRAS wild-type protein is “B (a compound having 3 or more and less than 10 is denoted as B)”. Further, the IC50 in assay [3] stood at 3.3 nM.

As to `C#CC[C@H]1C(=O)N[C@@H]([C@@H](C)CC)C(=O)N2CCCC[C@H]2C(=O)N(C)[C@H]2C/C=C\CCN(C2=O)[C@@H](Cc2ccc(C(F)(F)F)cc2)C(=O)N(C)CC(=O)N[C@@H](CCc2cc(F)c(C(F)(F)F)c(F)c2)C(=O)N2C[C@H](OCC)C[C@H]2C(=O)N(C)C2(CCC2)C(=O)N(C)[C@@H](C2CCCC2)C(=O)N(C)[C@H](C(=O)N(C)C)CC(=O)N1C` [PP3259], the Kd in assay [1] (Single Cycle Kinetics) came out at 1.2 nM. Further, the “NRAS /KRAS” value in assay [2] is “A (a compound having 10 or more and less than 20 is denoted as A)”. At HRAS wild-type protein, the “HRAS /KRAS” value is “B (a compound having 3 or more and less than 10 is denoted as B)”. For the same compound, the IC50 in assay [3] was determined as 49.8 nM.

In assay [1] (Single Cycle Kinetics), `CCCO[C@@H]1C[C@H]2C(=O)NC3(CC(C)(C)C3)C(=O)N(C)[C@@H](C3CCCC3)C(=O)N(C)[C@H](C(=O)N(C)CC)CC(=O)N(C)[C@@H](COCC)C(=O)N[C@@H]([C@@H](C)CC)C(=O)N3C[C@@H](F)C[C@H]3C(=O)N(C)[C@H]3C/C=C\CCN(C3=O)[C@@H](Cc3ccc(C(F)(F)F)cc3)C(=O)N(C)CC(=O)N[C@@H](CCc3cc(F)c(C(F)(F)F)c(F)c3)C(=O)N2C1` [PP3401] had a Kd of 0.32 nM. The “NRAS /KRAS” value in assay [2] is “A (a compound having 10 or more and less than 20 is denoted as A)”. The “HRAS /KRAS” value at HRAS wild-type protein was “A (a compound having 10 or more and less than 20 is denoted as A)”. Besides, the 50% inhibitory concentration (IC50) in assay [3] turned out to be 10.9 nM.

On to `CCC[C@H]1C(=O)N[C@@H]([C@@H](C)CC)C(=O)N(C)CC(=O)N(C)[C@H]2C/C=C\CCN(C2=O)[C@@H](Cc2ccc(C)cc2)C(=O)N(C)CC(=O)N[C@@H](CCc2cc(F)c(C(F)(F)F)c(F)c2)C(=O)N2CC3(CC3)C[C@H]2C(=O)N(C)C2(CCC2)C(=O)N(C)[C@@H](CC(C)(C)C)C(=O)N(C)[C@H](C(=O)N(C)C)CC(=O)N1C` [PP3333], for which the affinity in assay [1] (Single Cycle Kinetics), expressed as Kd, was 0.019 nM. Further, the “NRAS /KRAS” value in assay [2] was “B (a compound having 3 or more and less than 10 is denoted as B)”. In addition, on HRAS wild-type protein, the “HRAS /KRAS” value is “B (a compound having 3 or more and less than 10 is denoted as B)”. Also, the IC50 in assay [3] stood at 4.5 nM.

The compound `CCO[C@@H]1C[C@H]2C(=O)NC3(CC(C)(C)C3)C(=O)N(C)[C@@H](C(CC)CC)C(=O)N(C)[C@H](C(=O)N(C)C)CC(=O)N(C)[C@@H](COC)C(=O)N[C@@H]([C@@H](C)CC)C(=O)N(C)CC(=O)N(C)[C@H]3C/C=C\CCN(C3=O)[C@@H](CC3CCC(F)(F)CC3)C(=O)N(C)CC(=O)N[C@@H](CCc3ccc(C(F)(F)F)c(Cl)c3)C(=O)N2C1` [PP2444] registered a Kd in assay [1] (1:1 binding model) of 0.59 nM. The “NRAS /KRAS” value in assay [2] is “A (a compound having 10 or more and less than 20 is denoted as A)”. In addition, the “HRAS /KRAS” value on HRAS wild-type protein is “A (a compound having 10 or more and less than 20 is denoted as A)”. The IC50 in assay [3] is 32.3 nM.

For the compound `CCC[C@H]1C(=O)N[C@@H](CC(C)C)C(=O)N(CC)CC(=O)N(C)[C@H]2C/C=C\CCN(C2=O)[C@@H](Cc2ccc(C)cc2)C(=O)N(C)CC(=O)N[C@@H](CCc2ccc(C(F)(F)F)c(Cl)c2)C(=O)N2C[C@H](OCC)C[C@H]2C(=O)NC2(CCC2)C(=O)N(C)[C@@H](C2CCCC2)C(=O)N(C)[C@H](C(=O)N(C)C)CC(=O)N1C` [PP2545], the Kd in assay [1] (1:1 binding model) came out at 4.3 nM. For the same compound, the “NRAS /KRAS” value in assay [2] was “A (a compound having 10 or more and less than 20 is denoted as A)”. On HRAS wild-type protein, the “HRAS /KRAS” value was “A (a compound having 10 or more and less than 20 is denoted as A)”. The IC50 in assay [3] was found to be 279 nM.

`C#CC[C@H]1C(=O)N[C@@H]([C@@H](C)CC)C(=O)N(C2CC2)CC(=O)N(C)[C@H]2C/C=C\CCN(C2=O)[C@@H](Cc2ccc(C(F)(F)F)cc2)C(=O)N(C)CC(=O)N[C@@H](CCc2ccc(C(F)(F)F)c(OC)c2)C(=O)N2C[C@H](OCC)C[C@H]2C(=O)N(C)C2(CCC2)C(=O)N(C)[C@@H](C2CCCC2)C(=O)N(C)[C@H](C(=O)N(C)C)CC(=O)N1C` [PP3242]: the dissociation constant (Kd) in assay [1] (Single Cycle Kinetics) is 0.097 nM. The “NRAS /KRAS” value in assay [2] is “A (a compound having 10 or more and less than 20 is denoted as A)”. Further, the “HRAS /KRAS” value on HRAS wild-type protein was “A (a compound having 10 or more and less than 20 is denoted as A)”. In assay [3], the half-inhibitory concentration (IC50) worked out at 6 nM.

In turn, `CCC[C@H]1C(=O)N[C@@H]([C@@H](C)CC)C(=O)N(C2CC2)CC(=O)N(C)[C@H]2C/C=C\CCN(C2=O)[C@@H](Cc2ccc(C)cc2)C(=O)N(C)CC(=O)N[C@@H](CCc2ccc(Cl)c(Cl)c2)C(=O)N2C[C@H](OC(C)C)C[C@H]2C(=O)NC2(CC(C)(C)C2)C(=O)N(C)[C@@H](C2CCCC2)C(=O)N(C)[C@H](C(=O)N(C)C)CC(=O)N1C` [PP2571] displayed a Kd in assay [1] (1:1 binding model) of 1 nM. Further, the “NRAS /KRAS” value in assay [2] was “A (a compound having 10 or more and less than 20 is denoted as A)”. At HRAS wild-type protein, the “HRAS /KRAS” value is “A (a compound having 10 or more and less than 20 is denoted as A)”. Further, in assay [3], the IC50 was 76.1 nM.

The compound `CCC[C@H]1C(=O)N[C@@H]([C@@H](C)CC)C(=O)N(C)CC(=O)N(C)[C@H]2C/C=C\CCN(C2=O)[C@@H](Cc2ccc(C)cc2)C(=O)N(C)CC(=O)N[C@@H](CCc2ccc(C(F)(F)F)c(OC)c2)C(=O)N2CC3(CC3)C[C@H]2C(=O)N(C)C2(CCC2)C(=O)N(C)[C@@H]([C@@H](C)CC)C(=O)N(C)[C@H](C(=O)N(C)C)CC(=O)N1C` [PP3294] displayed a Kd in assay [1] (Single Cycle Kinetics) of 0.099 nM. Besides, in assay [2], the “NRAS /KRAS” value was “A (a compound having 10 or more and less than 20 is denoted as A)”. For the same compound, the “HRAS /KRAS” value on HRAS wild-type protein was “A (a compound having 10 or more and less than 20 is denoted as A)”. The IC50 in assay [3] stood at 3.4 nM.

In assay [1] (Single Cycle Kinetics), `CCO[C@@H]1C[C@H]2C(=O)NC3(CC(C)(C)C3)C(=O)N(C)[C@@H](C3CCCC3)C(=O)N(C)[C@H](C(=O)N(C)C)CC(=O)N(C)[C@@H]([C@@H](C)OC)C(=O)N[C@@H]([C@@H](C)CC)C(=O)N3CCC[C@H]3C(=O)N(C)[C@H]3C/C=C\CCN(C3=O)[C@@H](Cc3ccc(C)cc3)C(=O)N(C)CC(=O)N[C@@H](CCc3ccc(C(F)(F)F)c(Cl)c3)C(=O)N2C1` [PP3215] returned a Kd of 0.68 nM. For the same compound, the “NRAS /KRAS” value in assay [2] was “A (a compound having 10 or more and less than 20 is denoted as A)”. Further, at HRAS wild-type protein, the “HRAS /KRAS” value was “A (a compound having 10 or more and less than 20 is denoted as A)”. Further, the IC50 in assay [3] worked out at 109 nM.

`CCC[C@H]1C(=O)N[C@@H]([C@@H](C)CC)C(=O)N(C)CC(=O)N(C)[C@H]2C/C=C\CCN(C2=O)[C@@H](Cc2ccc(C(F)(F)F)cc2)C(=O)N(C)CC(=O)N[C@@H](CCc2ccc(C(F)(F)F)c(OC)c2)C(=O)N2CC[C@H](OC)[C@H]2C(=O)N(C)C2(CCC2)C(=O)N(C)[C@@H](C2CCCC2)C(=O)N(C)[C@H](C(=O)N(C)C)CC(=O)N1C` [PP3243] yielded a Kd in assay [1] (Single Cycle Kinetics) of 0.066 nM. Also, the “NRAS /KRAS” value in assay [2] is “A (a compound having 10 or more and less than 20 is denoted as A)”. At HRAS wild-type protein, the “HRAS /KRAS” value is “A (a compound having 10 or more and less than 20 is denoted as A)”. The IC50 in assay [3] was found to be 5.3 nM.
